{"source": "patent US6689362B1", "about": "“Method for treating T-lineage leukemias and lymphomas using a CD7-specific monoclonal antibody (TXU-7) linked to the pokeweed antiviral protein (PAP)” (priority 1997, dated 2004)", "tested_on": "clinical HIV-1 isolates (AT-101, AT-328, AT-332)", "experiment": "Hu-PBL-SCID mouse model of human AIDS (HIV-PCR and HIV-culture)", "type": "in vivo", "key": {"[1]": {"settings": "1 mg/ml in water, average 200 mg/kg/day"}}, "note": "Several values for one entry are separate records, joined by “and”; a condition that tells them apart may be missing. Equal entries are not always repeated.", "data": [{"smiles": "Cc1cn([C@H]2C[C@H](N=[N+]=[N-])[C@@H](CO)O2)c(=O)[nH]c1=O", "note": "[AZT, zidovudine]", "values": [{"measurement": "Cx+", "setting": "[1]", "value": "4/8"}, {"measurement": "PCR+", "setting": "[1]", "value": "4/10"}, {"measurement": "PCR+ Cx+", "setting": "[1]", "value": "4 and 4/8"}, {"measurement": "PCR+ CxND", "setting": "[1]", "value": "0/2"}, {"measurement": "PCR+ Cx−", "setting": "[1]", "value": "3 and 4/8"}, {"measurement": "PCR− Cx−", "setting": "[1]", "value": "0/8"}, {"measurement": "mice tested HIV-1 negative", "setting": "[1]", "value": "3 of 10"}, {"measurement": "gp120 on CD7 cells from peritoneal cavities (flow cytometry)", "setting": "treated Hu-PBL-SCID mice", "value": "presence of gp120 on CD7 cells"}]}]}
